{
  "source": "paper PMC13252604",
  "about": "“First Generation Proteolysis Targeting Chimeras (PROTACs) for the Treatment of Progeria” (Advanced Science, 2026)",
  "key": {"[1]": {"tested_on": "phosphorylated histone 2AX (pH2AX)", "assay": "pH2AX immunoblot in mouse progeroid cells", "format": "cell-based", "details": "Lmna^G609G/G609G fibroblasts, 5 µM, relative to GAPDH", "method": "(§1) Confocal fluorescence microscopy images are representative of 2 independent experiments. […] Representative cropped immunoblots are shown. […] MW, molecular weight (in kDa) markers. (C) PROTAC 2 decreases senescence‐associated β‐galactosidase (SA‐βgal) activity, interleukin (IL) 1α and p16 senescent markers. Lmna^G609G/G609G (G609G) or Lmna^+/+ (WT) fibroblasts were incubated with vehicle or compound 2 (5 µM). […] Data were analysed using one‐way ANOVA followed by Dunnett's post–hoc test. ^*, p < 0.05; ^**, p < 0.01, ^***, p < 0.001, ^****, p < 0.0001 vs G609G cells. […]\ncompound exposure. […] Samples were analysed by electrophoresis in polyacrylamide gels (All Kd SDS-PAGE, BioRad) and the proteins transferred to nitrocellulose membranes (GE Healthcare, Amersham). […]\nGAPDH (Cell Signaling, 2118S, 1:5000) and anti-actin (Santa Cruz Biotechnology, sc-376248, 1:500) as antibodies for loading control. […] The bands were quantified by densitometry using the […]\nQuantification of different proteins intensity was performed using ImageJ (NIH) except for nuclear rim progerin intensity with Cell Profiler (Broad Institute). […]\n(§2) SA β-galactosidase activity was determined by the FDG method. […]"}, "[2]": {"tested_on": "Lmna^G609G/G609G fibroblasts", "assay": "Senescence-associated β-galactosidase activity in mouse progeroid cells", "format": "cell-based", "details": "5 µM", "method": "as §1\nTBS-T and proteins were visualized by quimioluminiscence (GE Healthcare […]\nas §2\nferrocyanide, 0.6 mL 5 M NaCl, 0.2 mL 0.2 M MgCl2, (all from Sigma Aldrich) and 6.2 mL of deionized water in a total volume of 20 mL] in the dark in a humidified incubator at 37 °C for 24 h without CO2 supply. Then, an equal volume of the supernatant of each well was transferred to a new 96-well plate for fluorescence measurement. The resultant production of fluorescein was measured using a FluoStar Optima instrument (BMG Labtech) with an excitation of 485 nm and emission at 535 nm. […]\nTotal RNA was extracted by RNAeasy Mini Kit (Qiagen) according to the manufacturer instructions and subsequently quantified using the NanoPhotometer N60 (Implen). […]"}},
  "data": [
    {"smiles": "CC1(C)Oc2cc3oc(=O)ccc3cc2C[C@@H]1OC(=O)CCCCCNc1cccc2c1C(=O)N(C1CCC(=O)NC1=O)C2=O", "note": "(some centres unmarked) [compound 2]", "values": [
      {"measurement": "levels of phosphorylated histone 2AX (pH2AX)", "setting": "[1]", "result": "reduces the levels of phosphorylated histone 2AX"},
      {"measurement": "senescence‐associated β‐galactosidase (SA‐βgal) activity", "setting": "[2]", "result": "significantly reduced"}
    ]}
  ]
}
